Read-outs that look alike come from different tables or passages of the source.
Key:
PRMT5 = PRMT5 (Homo sapiens, UniProt O14744); settings: literature statement; cited from earlier work
MCL xenograft models = settings: multiple MCL xenograft models; cited from earlier work
PRMT5-MEP50 enzyme [1] = molecular target: T1, PRMT5-MEP50 enzyme (Homo sapiens, UniProt O14744); assay: In vitro assay 1a: high throughput mass spectrometer assay of SAH formation, 10 nM enzyme, 60 min; type: biochemical; settings: averaged values, PRMT5-MEP50, 10 nM enzyme, read-out: pIC50 Assay 1a (converted)
T1 construct: One virus expresses full length human PRMT5 with Flag-tag at N-terminus; Flag (N); purchased Charles River (Argenta); host or cells: insect cells (Sf9), baculovirus co-infection
Summary of the method: (§1)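 SAH product measured by RapidFire mass spectrometry after formic acid stop; IC50 from 11-point 1:2 dilutions, four-parameter fit. Reactions at 30 °C in 20 mM Tris pH 8.5 with 1 μM SAM, 0.3 μM H2A: assay 1a 10 nM PRMT5-MEP50, 60 min; assay 1b 1.25 nM, 120 min.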

PRMT5-MEP50 enzyme [2] = molecular target: T1, PRMT5-MEP50 enzyme; assay: In vitro assay 1b: high throughput mass spectrometer assay of SAH formation, 1.25 nM enzyme, 120 min; type: biochemical; settings: averaged values; PRMT5-MEP50, 1.25 nM enzyme, 120 min; read-out: pIC50 Assay 1b (converted)
Summary of the method: as §1

[3] = test system: nuclear symmetric Arginine dimethylation in A549 cells; assay: PD assay (assay 2): inhibition of nuclear symmetric Arginine dimethylation (SYM10 immunohistochemistry), 48 h; type: cell-based; settings: Homo sapiens
Summary of the method: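 Cells seeded at 400/well overnight, then treated 48 h at 37 °C, final DMSO 0.2%. Fixed and stained with SYM10 antibody plus Alexa 488 secondary, Hoechst and CellMask, then imaged on Opera. Normalized to DMSO (high) and 10 μM reference compound (low); averaged pIC50 reported.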

[4] = A549, averaged values, PD assay, A549 cells, symmetric Arginine dimethylation, read-out: pIC50 Assay 2 (converted)

T1 sequence (O14744 whole entry): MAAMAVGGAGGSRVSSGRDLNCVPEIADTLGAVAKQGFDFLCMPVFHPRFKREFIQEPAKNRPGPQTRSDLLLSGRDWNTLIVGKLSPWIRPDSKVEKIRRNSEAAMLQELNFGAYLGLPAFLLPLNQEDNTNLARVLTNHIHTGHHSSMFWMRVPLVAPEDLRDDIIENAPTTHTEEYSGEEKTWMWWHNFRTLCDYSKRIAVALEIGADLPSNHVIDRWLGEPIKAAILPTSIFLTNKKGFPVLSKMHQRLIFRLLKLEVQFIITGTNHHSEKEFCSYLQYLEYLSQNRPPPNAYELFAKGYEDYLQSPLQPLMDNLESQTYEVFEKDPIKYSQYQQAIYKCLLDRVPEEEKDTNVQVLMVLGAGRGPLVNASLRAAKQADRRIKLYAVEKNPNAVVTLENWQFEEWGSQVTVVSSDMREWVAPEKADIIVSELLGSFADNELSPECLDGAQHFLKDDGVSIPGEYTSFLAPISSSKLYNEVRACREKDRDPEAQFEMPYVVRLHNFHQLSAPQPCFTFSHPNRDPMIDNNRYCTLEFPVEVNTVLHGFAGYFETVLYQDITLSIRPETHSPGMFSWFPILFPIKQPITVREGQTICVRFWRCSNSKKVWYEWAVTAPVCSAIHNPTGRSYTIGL
T1 sequence (Q9BQA1 whole entry partner): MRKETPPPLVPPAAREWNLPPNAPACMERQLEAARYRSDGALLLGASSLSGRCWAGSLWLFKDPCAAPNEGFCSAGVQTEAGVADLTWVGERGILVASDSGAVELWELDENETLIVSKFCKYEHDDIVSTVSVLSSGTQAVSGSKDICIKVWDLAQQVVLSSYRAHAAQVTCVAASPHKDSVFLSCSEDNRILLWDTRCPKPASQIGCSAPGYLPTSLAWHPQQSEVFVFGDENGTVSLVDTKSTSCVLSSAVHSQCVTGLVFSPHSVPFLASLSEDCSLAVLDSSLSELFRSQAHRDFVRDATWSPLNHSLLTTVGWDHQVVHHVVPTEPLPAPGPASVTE
PRMT5, sequence (O14744 whole entry, species assumed): as the sequence (O14744 whole entry) above
PRMT5, sequence (Q9BQA1 whole entry partner, species assumed): as the sequence (Q9BQA1 whole entry partner) above

Compound | potency as PRMT5 inhibitor (PRMT5) | anti-tumour activity (MCL xenograft models) | IC50 (PRMT5-MEP50 enzyme [1]) | IC50 (PRMT5-MEP50 enzyme [2]) | IC50 [3, 4] | IC50 ([3]; A549, read-out: pIC50 Assay 2 (converted))
O=C(NC[C@H](O)CN1CCc2ccccc2C1)c1cc(NC2COC2)ncn1 [EPZ015666] | sub-nanomolar | anti-tumour activity | – | – | – | –
Nc1cnc2ccc(CC[C@H]3C[C@@H](n4ccc5c(Cl)ncnc54)[C@H](O)[C@@H]3O)cc2n1 [Compound 143] | – | – | 10 nM | 50.1 nM | 2510 nM | –
Nc1ccc2ccc(OC[C@H]3O[C@@H](n4ccc5cncnc54)[C@H](O)[C@@H]3O)cc2n1 [Compound 163] | – | – | 0.501 nM | 5.01 nM | 6.31 nM | –
COc1ccnc2cc(OC[C@H]3O[C@@H](n4ccc5c(N)ncnc54)[C@H](O)[C@@H]3O)ccc12 [Compound 104] | – | – | 5010 nM | 15800 nM | > 10000 nM | –
CC(C)C(=O)O[C@@H]1[C@H](OC(=O)C(C)C)[C@@H](COc2ccc3ccc(C(F)(F)F)nc3c2)O[C@H]1n1ccc2c(N)ncnc21 [Compound 72] | – | – | > 10000 nM | > 100000 nM | > 10000 nM | –
O[C@@H]1[C@H](O)[C@@H](COc2ccc3c(Cl)ccnc3c2)O[C@H]1n1ccc2c(Cl)ncnc21 [Compound 34] | – | – | 7940 nM | > 100000 nM | > 20000 nM | –
Cc1cc2c(N)ncnc2n1[C@@H]1O[C@H](COc2ccc3cc(Br)cnc3c2)[C@@H](O)[C@H]1O [Compound 108] | – | – | 39.8 nM | 100 nM | 63.1 nM | –
Cc1cn([C@@H]2O[C@H](COc3ccc4cccnc4c3)[C@@H](O)[C@H]2O)c2ncnc(N)c12 [Compound 82] | – | – | 200 nM | 501 nM | 1260 nM | –
Nc1ncnc2c1ccn2[C@@H]1O[C@H](COc2ccc3cncnc3c2)[C@@H](O)[C@H]1O [Compound 16] | – | – | 251 nM | 1260 nM | 5010 nM | –
Nc1ncnc2c1ccn2[C@@H]1C[C@H](Cc2ccc3ccncc3c2)[C@@H](O)[C@H]1O [Compound 95] | – | – | 316 nM | 501 nM | > 10000 nM | –
Nc1ncnc2c1ccn2[C@@H]1C[C@H](CCc2ccc3cccnc3c2)[C@@H](O)[C@H]1O [Compound 56] | – | – | 6.31 nM | 15.8 nM | – | 7.94 nM
Nc1ncnc2c1ccn2[C@@H]1O[C@H](COc2ccc3ccc(NCc4ccccc4)nc3c2)[C@@H](O)[C@H]1O [Compound 107] | – | – | 1.26 nM | 3.98 nM | 3.98 nM | –
Nc1ncnc2c1ccn2[C@@H]1O[C@H](COc2ccc3cc(C(F)(F)F)cnc3c2)[C@@H](O)[C@H]1O [Compound 27] | – | – | 398 nM | 794 nM | ~1150 nM | –
Nc1ccc2ccc(OC[C@H]3O[C@@H](n4ccc5c(O)ncnc54)[C@H](O)[C@@H]3O)cc2n1 [Compound 208] | – | – | 2510 nM | 1260 nM | > 10000 nM | –
Nc1ncnn2c([C@@H]3O[C@H](/C=C/c4ccc5cccnc5c4)[C@@H](O)[C@H]3O)ccc12 [Compound 61] | – | – | 398 nM | 1000 nM | ~1320 nM | –
Nc1ncnc2c1ccn2[C@@H]1O[C@H](COc2cc3ncc(Br)cc3cc2F)[C@@H](O)[C@H]1O [Compound 106] | – | – | 63.1 nM | 158 nM | 398 nM | –
Cc1cnc2cc(CC[C@H]3C[C@@H](n4ccc5c(N)ncnc54)[C@H](O)[C@@H]3O)ccc2c1 [Compound 113] | – | – | 5.01 nM | 10 nM | 5.01 nM | –
CN(C[C@H]1O[C@@H](n2ccc3c(N)ncnc32)[C@H](O)[C@@H]1O)c1ccc2cc(Br)cnc2c1 [Compound 52] | – | – | 63.1 nM | 158 nM | 398 nM | –
Nc1ncnc2c1ccn2[C@@H]1O[C@H](COc2ccc3ccnnc3c2)[C@@H](O)[C@H]1O [Compound 69] | – | – | 631 nM | 3160 nM | > 20000 nM | –
O[C@@H]1[C@@H](CCc2ccc3ccc(NCc4ccc(Cl)cc4)nc3c2)C[C@@H](n2ccc3cncnc32)[C@@H]1O [Compound 171] | – | – | 0.794 nM | 6.31 nM | 3.16 nM | –
Nc1ncnc2c1ccn2[C@@H]1O[C@H](COc2ccc3cc(C4CCCC4)cnc3c2)[C@@H](O)[C@H]1O [Compound 109] | – | – | 126 nM | 200 nM | 1000 nM | –
Nc1ccc2ccc(CC[C@H]3C[C@@H](n4ccc5c(Cl)ncnc54)[C@H](O)[C@@H]3O)cc2n1 [Compound 110] | – | – | 2 nM | 1.58 nM | 0.501 nM | –

Source: patent publication US11318157B2, “6-6 bicyclic aromatic ring substituted nucleoside analogues for use as PRMT5 inhibitors” (Janssen Pharmaceutica NV, priority 2015, dated 2022)
